Experimental data: the supplement of paper PMC10307832

What was measured:
Assay in all cases: relative viability (nuclei count vs DMSO), 5 days (fraction); higher = more cells survive
SK-MES-1 = tested on: SK-MES-1
Method in brief: (§1)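 Lung cancer cell lines in 1536-well plates were dosed by pin tool the day after seeding, either with one drug alone or with a fixed anchor-drug dose plus five library-drug doses (not always all listed) in √10 steps. After 5 days, cells were fixed and their nuclei stained in one step (final 0.05% Triton X-100, 1% formaldehyde, 1 ug/ml Hoechst), then counted on 4× images. Relative viability is the nuclei count in treated wells divided by that in vehicle wells. Values are medians of duplicate plates.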

NCI-H647 = tested on: NCI-H647
Method in brief: as §1

NCI-H1755 = tested on: NCI-H1755
Method in brief: as §1

NCI-H1734 = tested on: NCI-H1734
Method in brief: as §1

NCI-H838 = tested on: NCI-H838
Method in brief: as §1

COR-L23 = tested on: COR-L23
Method in brief: as §1

NCI-H2342 = tested on: NCI-H2342
Method in brief: as §1

NCI-H358 = tested on: NCI-H358
Method in brief: as §1

NCI-H322M = tested on: NCI-H322M
Method in brief: as §1

COR-L 105 = tested on: COR-L 105
Method in brief: as §1

HARA = tested on: HARA
Method in brief: as §1

NCI-H1355 = tested on: NCI-H1355
Method in brief: as §1

PC-14 = tested on: PC-14
Method in brief: as §1

NCI-H522 = tested on: NCI-H522
Method in brief: as §1

NCI-H2009 = tested on: NCI-H2009
Method in brief: as §1

EKVX = tested on: EKVX
Method in brief: as §1

HOP-62 = tested on: HOP-62
Method in brief: as §1

NCI-H2347 = tested on: NCI-H2347
Method in brief: as §1

NCI-H2228 = tested on: NCI-H2228
Method in brief: as §1

UMC-11 = tested on: UMC-11
Method in brief: as §1

NCI-H1993 = tested on: NCI-H1993
Method in brief: as §1

NCI-H1793 = tested on: NCI-H1793
Method in brief: as §1

NCI-H1395 = tested on: NCI-H1395
Method in brief: as §1

NCI-H2170 = tested on: NCI-H2170
Method in brief: as §1

## Clc1ccc(Nc2nnc(Cc3ccncc3)c3ccccc23)cc1 [Vatalanib] + CC(=O)Nc1cccc(-n2c(=O)n(C3CC3)c(=O)c3c(Nc4ccc(I)cc4F)n(C)c(=O)c(C)c32)c1 [Trametinib] (partner 0.02 µM)
SK-MES-1; first compound 0.04 µM
  relative viability: 0.507
SK-MES-1; first compound 0.1265 µM
  relative viability: 0.503
SK-MES-1; first compound 0.4 µM
  relative viability: 0.573
SK-MES-1; first compound 1.265 µM
  relative viability: 0.548
SK-MES-1; first compound 4 µM
  relative viability: 0.507
NCI-H647; first compound 0.04 µM
  relative viability: 0.538
NCI-H647; first compound 0.1265 µM
  relative viability: 0.614
NCI-H647; first compound 0.4 µM
  relative viability: 0.581
NCI-H647; first compound 1.265 µM
  relative viability: 0.407
NCI-H647; first compound 4 µM
  relative viability: 0.499
NCI-H1755; first compound 0.04 µM
  relative viability: 0.734
NCI-H1755; first compound 0.1265 µM
  relative viability: 0.812
NCI-H1755; first compound 0.4 µM
  relative viability: 0.753
NCI-H1755; first compound 1.265 µM
  relative viability: 0.788
NCI-H1755; first compound 4 µM
  relative viability: 0.717
NCI-H1734; first compound 0.04 µM
  relative viability: 0.731
NCI-H1734; first compound 0.1265 µM
  relative viability: 0.673
NCI-H1734; first compound 0.4 µM
  relative viability: 0.705
NCI-H1734; first compound 1.265 µM
  relative viability: 0.655
NCI-H1734; first compound 4 µM
  relative viability: 0.684
NCI-H838; first compound 0.04 µM
  relative viability: 0.575
NCI-H838; first compound 0.1265 µM
  relative viability: 0.539
NCI-H838; first compound 0.4 µM
  relative viability: 0.657
NCI-H838; first compound 1.265 µM
  relative viability: 0.462
NCI-H838; first compound 4 µM
  relative viability: 0.509
COR-L23; first compound 0.04 µM
  relative viability: 0.606
COR-L23; first compound 0.1265 µM
  relative viability: 0.587
COR-L23; first compound 0.4 µM
  relative viability: 0.721
COR-L23; first compound 1.265 µM
  relative viability: 0.578
COR-L23; first compound 4 µM
  relative viability: 0.534
NCI-H2342; first compound 0.04 µM
  relative viability: 0.766
NCI-H2342; first compound 0.1265 µM
  relative viability: 0.794
NCI-H2342; first compound 0.4 µM
  relative viability: 0.737
NCI-H2342; first compound 1.265 µM
  relative viability: 0.747
NCI-H2342; first compound 4 µM
  relative viability: 0.804
NCI-H358; first compound 0.04 µM
  relative viability: 0.156
NCI-H358; first compound 0.1265 µM
  relative viability: 0.122
NCI-H358; first compound 0.4 µM
  relative viability: 0.151
NCI-H358; first compound 1.265 µM
  relative viability: 0.13
NCI-H358; first compound 4 µM
  relative viability: 0.138
NCI-H322M; first compound 0.04 µM
  relative viability: 0.416
NCI-H322M; first compound 0.1265 µM
  relative viability: 0.51
NCI-H322M; first compound 0.4 µM
  relative viability: 0.552
NCI-H322M; first compound 4 µM
  relative viability: 0.517
COR-L 105; first compound 0.04 µM
  relative viability: 0.451
COR-L 105; first compound 0.1265 µM
  relative viability: 0.363
COR-L 105; first compound 0.4 µM
  relative viability: 0.427
COR-L 105; first compound 1.265 µM
  relative viability: 0.443
COR-L 105; first compound 4 µM
  relative viability: 0.426
HARA; first compound 0.04 µM
  relative viability: 0.687
HARA; first compound 0.1265 µM
  relative viability: 0.728
HARA; first compound 0.4 µM
  relative viability: 0.606
HARA; first compound 1.265 µM
  relative viability: 0.677
HARA; first compound 4 µM
  relative viability: 0.909
NCI-H1355; first compound 0.04 µM
  relative viability: 0.443
NCI-H1355; first compound 0.1265 µM
  relative viability: 0.383
NCI-H1355; first compound 0.4 µM
  relative viability: 0.461
NCI-H1355; first compound 1.265 µM
  relative viability: 0.404
NCI-H1355; first compound 4 µM
  relative viability: 0.428
PC-14; first compound 0.04 µM
  relative viability: 0.671
PC-14; first compound 0.1265 µM
  relative viability: 0.826
PC-14; first compound 0.4 µM
  relative viability: 0.991
PC-14; first compound 1.265 µM
  relative viability: 0.738
PC-14; first compound 4 µM
  relative viability: 0.6
NCI-H522; first compound 0.04 µM
  relative viability: 0.73
NCI-H522; first compound 0.1265 µM
  relative viability: 0.714
NCI-H522; first compound 0.4 µM
  relative viability: 0.714
NCI-H522; first compound 1.265 µM
  relative viability: 0.754
NCI-H522; first compound 4 µM
  relative viability: 0.882
NCI-H2009; first compound 0.04 µM
  relative viability: 0.32
NCI-H2009; first compound 0.1265 µM
  relative viability: 0.251
NCI-H2009; first compound 0.4 µM
  relative viability: 0.325
NCI-H2009; first compound 1.265 µM
  relative viability: 0.307
NCI-H2009; first compound 4 µM
  relative viability: 0.263
EKVX; first compound 0.04 µM
  relative viability: 0.274
EKVX; first compound 0.1265 µM
  relative viability: 0.409
EKVX; first compound 0.4 µM
  relative viability: 0.308
EKVX; first compound 1.265 µM
  relative viability: 0.351
EKVX; first compound 4 µM
  relative viability: 0.39
HOP-62; first compound 0.04 µM
  relative viability: 0.388
HOP-62; first compound 0.1265 µM
  relative viability: 0.382
HOP-62; first compound 0.4 µM
  relative viability: 0.42
HOP-62; first compound 1.265 µM
  relative viability: 0.367
HOP-62; first compound 4 µM
  relative viability: 0.355
NCI-H2347; first compound 0.04 µM
  relative viability: 0.278
NCI-H2347; first compound 0.1265 µM
  relative viability: 0.277
NCI-H2347; first compound 0.4 µM
  relative viability: 0.279
NCI-H2347; first compound 1.265 µM
  relative viability: 0.266
NCI-H2347; first compound 4 µM
  relative viability: 0.309
NCI-H2228; first compound 0.04 µM
  relative viability: 0.542
NCI-H2228; first compound 0.1265 µM
  relative viability: 0.467
NCI-H2228; first compound 0.4 µM
  relative viability: 0.666
NCI-H2228; first compound 1.265 µM
  relative viability: 0.782
NCI-H2228; first compound 4 µM
  relative viability: 0.44
UMC-11; first compound 0.04 µM
  relative viability: 0.761
UMC-11; first compound 0.1265 µM
  relative viability: 0.769
UMC-11; first compound 0.4 µM
  relative viability: 0.418
UMC-11; first compound 1.265 µM
  relative viability: 0.688
UMC-11; first compound 4 µM
  relative viability: 0.847
NCI-H1993; first compound 0.04 µM
  relative viability: 0.539
NCI-H1993; first compound 0.1265 µM
  relative viability: 0.452
NCI-H1993; first compound 0.4 µM
  relative viability: 0.54
NCI-H1993; first compound 1.265 µM
  relative viability: 0.459
NCI-H1993; first compound 4 µM
  relative viability: 0.49
NCI-H1793; first compound 0.04 µM
  relative viability: 0.372
NCI-H1793; first compound 0.1265 µM
  relative viability: 0.494
NCI-H1793; first compound 0.4 µM
  relative viability: 0.424
NCI-H1793; first compound 1.265 µM
  relative viability: 0.388
NCI-H1793; first compound 4 µM
  relative viability: 0.425
NCI-H1395; first compound 0.04 µM
  relative viability: 1.1
NCI-H1395; first compound 0.1265 µM
  relative viability: 1.03
NCI-H1395; first compound 0.4 µM
  relative viability: 1.14
NCI-H1395; first compound 4 µM
  relative viability: 0.974
NCI-H2170; first compound 0.04 µM
  relative viability: 0.926
NCI-H2170; first compound 0.1265 µM
  relative viability: 0.857
NCI-H2170; first compound 0.4 µM
  relative viability: 0.856
NCI-H2170; first compound 1.265 µM
  relative viability: 0.892
NCI-H2170; first compound 4 µM
  relative viability: 0.899
